Where two headings read alike, the source gives them in different places.
Legend:
[1] = tested on: Hec50co cells; experiment: Cytotoxicity assay (MTS), Hec50co cells; assay type: cell-based, human; settings: 72 h; for IC50: Homo sapiens
Experimental: Cytotoxicity assay. Hec50co cells were seeded at 1500 cells per well in 96-well plates for 24 h in a complete medium. Later, the medium was removed and PTX, CIP2b, or CIP (all dissolved in DMSO and diluted in complete medium) were added to cells as either monotherapies or in combinations, and the plates were incubated for 72 hours. Then, the complete medium was removed and MTS reagent in the complete medium was added to wells, and the plates were incubated for 1-4 hours according to the manufacturer's protocol. Finally, the absorbance was recorded at 490 nm using a Spectra Max plus 384 Microplate Spectrophotometer (Molecular Devices, Sunnyvale, CA). Percentage cell viability was expressed as the average absorbance of the test group relative to that of the control group (untreated cells). The concentration that inhibits proliferation of 50% of cells compared to control (IC50) was calculated using GraphPad Prism (La Jolla, CA). Synergism was detected following the Chou-Talalay method (CI<1 indicates synergism) (Chou T C. Cancer research. 2010; 70(2):440-6, doi: 10.1158/0008-5472.CAN-09-1947) using CompuSyn software (Ver. 1.0). […]

[2] = tested on: Hec50co cells; experiment: Intracellular accumulation of PTX-OG (flow cytometry, confocal microscopy); assay type: cell-based, human; settings: 400 nM PTX-OG alone, 2 h
Experimental: Intracellular accumulation of PTX using flow cytometer. To evaluate PTX cellular accumulation in the presence or absence of CIP2b, Hec50co cells were seeded at a density of 200,000 cells per well in 6-well plates in complete medium and incubated for 24 h. Afterward, the medium was removed, and a DMSO-based solution (0.1 mg/mL) of fluorescently labeled PTX (PTX-OG) was added at 400 nM per well, and the volume was completed to 2 mL with the medium. Also, CIP2b (in DMSO) was added at 4 or 40 μM, either alone or in combination with PTX-OG. After 2 h, the medium was removed, the cells were washed thoroughly with DPBS, trypsinized, and collected by centrifugation (230 xg, 5 min). Finally, cells were analyzed by flow cytometry (FACScan).
Intracellular accumulation of PTX using confocal microscopy. Intracellular accumulation of PTX co-delivered with CIP2b was also studied qualitatively in Hec50co cells using confocal microscopy. […]
In vitro activity of CIP2b NPs. […] An equivalent quantity of blank NPs was also tested to account for the effect of the PLGA NPs alone without CIP2b. […] An equivalent quantity of blank NPs was also added, either alone or with PTX-OG. Samples were then analyzed using a flow cytometer, as described above.

[3] = tested on: caspase 3; experiment: Caspase multiplex activity assay, caspase 3; assay type: cell-based, human; settings: 72 h; PTX 5, 10 nM; CIP2b 10, 25, 50 μM
Experimental: Apoptosis and caspase activity. The expression of caspase 3, 8, and 9 was measured using Multiplex Activity Assay Fluorometric Kit (Cat. No. ab219915, Abcam). Briefly, Hec50co cells were plated in 96-well plates at a density of 3000 per well in 100 μL of the complete medium and incubated for 24 hours. After incubation, the medium was removed, and different concentrations either in single or combination of treatments were added (PTX 5 and 10 nM; CIP2b 10, 25, and 50 μM). Cells with treatments were incubated for 24 or 72 hours. Then, the caspase kit reagents were added to the cells and incubated at room temperature for 60 minutes. Fluorescence intensity (at excitation/emission values of 535/620 nm, 490/525 nm, and 370/450 nm for caspase 3, 8, and 9, respectively) was then measured using a SpectraMax M5 microplate reader (Molecular Devices).

[4] = Cytotoxicity assay (MTS) and bright-field microscopy, LLC-PK1-MDR1 cells; assay type: cell-based, porcine; settings: pig, LLC-PK1-MDR1 cells (overexpressing P-gp), PTX alone, maximum concentration used 50 nM
Experimental: Cytotoxicity assay. Hec50co cells were seeded at 1500 cells per well in 96-well plates for 24 h in a complete medium. Later, the medium was removed and PTX, CIP2b, or CIP (all dissolved in DMSO and diluted in complete medium) were added to cells as either monotherapies or in combinations, and the plates were incubated for 72 hours. Then, the complete medium was removed and MTS reagent in the complete medium was added to wells, and the plates were incubated for 1-4 hours according to the manufacturer's protocol. Finally, the absorbance was recorded at 490 nm using a Spectra Max plus 384 Microplate Spectrophotometer (Molecular Devices, Sunnyvale, CA). Percentage cell viability was expressed as the average absorbance of the test group relative to that of the control group (untreated cells). […] Synergism was detected following the Chou-Talalay method (CI<1 indicates synergism) (Chou T C. Cancer research. 2010; 70(2):440-6, doi: 10.1158/0008-5472.CAN-09-1947) using CompuSyn software (Ver. 1.0). P-gp efflux transporter. Overexpression of the MDR1 gene, reflected in the abundance of the P-gp efflux pump, is one of the major reasons for PTX chemoresistance in cancer. In this study, LLC-PK1-WT and LLC-PK1-MDR1 cell lines were used. MTS assay and the PTX intracellular accumulation experiment were performed as previously described above.

CC(=O)O[C@H]1C(=O)[C@@]2(C)[C@H]([C@H](OC(=O)c3ccccc3)[C@]3(O)C[C@H](OC(=O)[C@H](O)[C@@H](NC(=O)c4ccccc4)c4ccccc4)C(C)=C1C3(C)C)[C@]1(OC(C)=O)CO[C@@H]1C[C@@H]2O [PTX, paclitaxel]
survival ([1]; 0.1 nM PTX alone): 100%
cell survival ([1]; 5 nM PTX as single compound): about 80%
IC50 ([1]; 10 μM CIP2b added, read-out: IC50 value of PTX): 3.1 nM
IC50 ([1]; 25 μM CIP2b added, read-out: IC50 value of PTX): 2.15 nM
IC50 ([1]; PTX alone): 8.77 nM
cellular uptake of PTX-OG [2]: readily taken up
levels of caspase 3 [3]: high levels of caspase 3
IC50 at 72 h [4]: > 50 nM
